Reference: patent publication US20090099195A1 (ASTRAZENECA AB, priority 2007, published 2009)

What was measured:
[1] = target: T1, hP2X3 (human Purinergic P2X receptors subtype 3), clone A (Homo sapiens, UniProt P56373); experiment: hP2X3 FLIPR calcium (Fluo-4) antagonist assay, clone A; details: Human P2X3 FLIPR Clone A Mean IC50 (nM), RLE cells expressing hP2X3 clone A (AB016608); agonist 500 nM α,β-methylene-ATP
T1 sequence (P56373 1-397): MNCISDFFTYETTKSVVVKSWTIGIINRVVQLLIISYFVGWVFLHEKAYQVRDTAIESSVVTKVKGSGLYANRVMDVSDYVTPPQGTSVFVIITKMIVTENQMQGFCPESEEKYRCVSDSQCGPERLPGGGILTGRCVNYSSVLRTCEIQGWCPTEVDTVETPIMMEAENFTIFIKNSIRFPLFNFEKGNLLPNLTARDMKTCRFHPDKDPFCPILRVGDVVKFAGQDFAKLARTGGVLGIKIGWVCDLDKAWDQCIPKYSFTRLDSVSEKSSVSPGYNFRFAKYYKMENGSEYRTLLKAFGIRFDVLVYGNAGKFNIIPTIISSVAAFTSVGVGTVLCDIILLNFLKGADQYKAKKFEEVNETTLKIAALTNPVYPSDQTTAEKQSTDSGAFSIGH
Protocol: The assay used a calcium indicator dye (Fluo-4) that emits fluorescence, the intensity of which is related to the concentration of calcium that entered the cell when P2X3 was activated and the channel opened. Activation of hP2X3 or rat P2X3 and rat P2X2/3 (from the coexpression of rat P2X3 and rat P2×2) is elicited the by P2X3 agonist α,β methylene-ATP (Sigma M6517), and the resulting fluorescence is measured with a FLIPR II™ instrument (Molecular Devices). Compounds are tested for their ability to inhibit the agonist-induced fluorescent signal.
For the rat P2X2/3 HEK-TREX cells, induction of the rat P2X3 expression is used to generate the rat P2X2/3 channels in HEK-TREX cells and performed by addition of 1 μg/mL tetracycline (Invitrogen) 24 h prior to compounds testing to the HEK-TREX expressing the rat P2X2 constitutively. On the day of the experiment, the cells and test compounds are prepared as follows. […] After preparing the compounds, the medium is removed from the cell plates by inversion. A loading solution of 30 μL assay buffer containing 4 μM of the calcium indicator dye FLUO-4 AM (Molecular Probes F14202) is added to each well using a Multidrop (Labsystems). […] The incubation is terminated by washing the cells four times in assay buffer using a Skatron Embla (Molecular Devices), and 25 μL of assay buffer was left in each well. Cell plates are then transferred to the FLIPR. Experiments are initiated by measuring a baseline fluorescence reading for 10 seconds, followed by the addition of 12.5 μL of cpds and data sampling for a total 280 seconds. The experiments are terminated by addition of 12.5 μL of a reference agonist (500 nM α,β-methylene-ATP) or buffer, producing a final assay volume of 50 μL followed by data sampling for an additional 280 seconds.
In P2X3 antagonist experiments (human and rat assays) data are analysed as normalised maximal peak fluorescence monitored following agonist addition and calculated as percent of relative fluorescent counts from control agonist. The dose-response antagonist inhibition curves are analyzed in a 4-parameter sigmoidal fit using a non-linear curve-fitting program (XLfit version 5.0.6, ID Business Solutions Limited, Guildford, UK).

[2] = target: T2, hP2X3 (human Purinergic P2X receptors subtype 3), clone B (Homo sapiens, UniProt P56373); experiment: hP2X3 FLIPR calcium (Fluo-4) antagonist assay, clone B; details: Human P2X3 FLIPR Clone B IC50 (nM), RLE cells expressing hP2X3 clone B (NM_002559); agonist 500 nM α,β-methylene-ATP
T2 sequence (P56373 1-397): T1 sequence (P56373 1-397)

Row | SMILES | IC50 [1] [nM] | IC50 [2] [nM]
1 | CC(=O)N1CCN(c2nc(N[C@H](C)c3ccc(OC4CCC4)cc3)c3c(n2)C(=O)N(C(C)C)C3)CC1 [Example 191, (R)-2-(4-acetylpiperazin-1-yl)-4-(1-(4-cyclobutoxyphenyl)ethylamino)-6-isopropyl-5H-pyrrolo[3,4-d]pyrimidin-7(6H)-one] | 81.3 | 62
2 | CC(=O)N1CCN(c2nc3c(c(N4CCCC4c4ccc(Cl)c(Cl)c4)n2)CN(C(C)C)C3=O)CC1 (stereo not drawn) [Example 297, 2-(4-acetylpiperazin-1-yl)-4-[2-(3,4-dichlorophenyl)pyrrolidin-1-yl]-6-(1-methylethyl)-5,6-dihydro-7H-pyrrolo[3,4-d]pyrimidin-7-one] | 322 | 300
3 | COc1ccc(C2CCCN2c2nc(N3CCN(C(C)=O)CC3)nc3c2CN(C(C)C)C3=O)cc1C (stereo not drawn) [Example 295, 2-(4-acetylpiperazin-1-yl)-4-[2-(4-methoxy-3-methylphenyl)pyrrolidin-1-yl]-6-(1-methylethyl)-5,6-dihydro-7H-pyrrolo[3,4-d]pyrimidin-7-one] | 824 | 730
4 | CC(=O)N1CCN(c2nc(N[C@H](C)c3ccc(C#N)cc3)c3c(n2)C(=O)N(C(C)C)C3)CC1 [Example 351, (R)-4-(1-(2-(4-acetylpiperazin-1-yl)-6-isopropyl-7-oxo-6,7-dihydro-5H-pyrrolo[3,4-d]pyrimidin-4-ylamino)ethyl)benzonitrile] | 1940 | 3300
5 | CC(=O)N1CCN(c2nc3c(c(N(C)C(C)c4ccc5ncccc5c4)n2)CN(C(C)C)C3=O)CC1 (single isomer, unassigned) [Example 260, 2-(4-acetylpiperazin-1-yl)-6-isopropyl-4-(methyl(1-(quinolin-6-yl)ethyl)amino)-5H-pyrrolo[3,4-d]pyrimidin-7(6H)-one] | 1900 | 2300
6 | CC(=O)N1CCN(c2nc(N[C@H](C)c3ccc(C(F)(F)F)c(F)c3)c3c(n2)C(=O)N(C(C)C)C3)CC1 [Example 182, (R)-2-(4-acetylpiperazin-1-yl)-4-(1-(3-fluoro-4-(trifluoromethyl)phenyl)ethylamino)-6-isopropyl-5H-pyrrolo[3,4-d]pyrimidin-7(6H)-one] | 271 | 240
7 | CC(=O)N1CCN(c2nc(NCc3nc4ccccc4s3)c3c(n2)C(=O)N(C(C)C)C3)CC1 [Example 199, 2-(4-acetylpiperazin-1-yl)-4-(benzo[d]thiazol-2-ylmethylamino)-6-isopropyl-5H-pyrrolo[3,4-d]pyrimidin-7(6H)-one] | 5050 | 2300
8 | CCN(c1nc(N2CCN(C(C)=O)CC2)nc2c1CN(C(C)C)C2=O)C(C)c1ccc2ncccc2c1 (single isomer, unassigned) [Example 258, 2-(4-acetylpiperazin-1-yl)-4-(ethyl(1-(quinolin-6-yl)ethyl)amino)-6-isopropyl-5H-pyrrolo[3,4-d]pyrimidin-7(6H)-one] | 232 | 250
9 | CC(=O)N1CCN(c2nc(NC(C)c3nc4ccccc4s3)c3c(n2)C(=O)N(C(C)C)C3)CC1 (stereo not drawn) [Example 236, 2-(4-acetylpiperazin-1-yl)-4-(1-(benzo[d]thiazol-2-yl)ethylamino)-6-isopropyl-5H-pyrrolo[3,4-d]pyrimidin-7(6H)-one] | 564 | 
10 | CC(=O)N1CCN(c2nc3c(c(N(C)Cc4ccc5ccn(C)c5c4)n2)CN(C(C)C)C3=O)CC1 [Example 355, 2-(4-acetylpiperazin-1-yl)-6-(1-methylethyl)-4-{methyl[(1-methyl-1H-indol-6-yl)methyl]amino}-5,6-dihydro-7H-pyrrolo[3,4-d]pyrimidin-7-one] | 5760 | 
11 | COCc1ccc([C@@H](C)Nc2nc(N3CCN(C(C)=O)CC3)nc3c2CN(C(C)C)C3=O)cc1F [Example 338, 2-(4-acetylpiperazin-1-yl)-4-({(1R)-1-[3-fluoro-4-(methoxymethyl)phenyl]ethyl}amino)-6-(1-methylethyl)-5,6-dihydro-7H-pyrrolo[3,4-d]pyrimidin-7-one] | 2640 | 
12 | CC(=O)N1CCN(c2nc(N[C@H](C)c3ccc(CO)cc3)c3c(n2)C(=O)N(C(C)C)C3)CC1 [Example 332, (R)-2-(4-acetylpiperazin-1-yl)-4-(1-(4-(hydroxymethyl)phenyl)ethylamino)-6-isopropyl-5H-pyrrolo[3,4-d]pyrimidin-7(6H)-one] | > 30000 | 
13 | CCN1CCN(c2nc3c(c(N(C)Cc4cc5ccccc5cn4)n2)CN(C(C)C)C3=O)CC1=O [Example 362, 2-(4-ethyl-3-oxopiperazin-1-yl)-6-isopropyl-4-((isoquinolin-3-ylmethyl)(methyl)amino)-5H-pyrrolo[3,4-d]pyrimidin-7(6H)-one] | 356 | 
14 | CC(=O)N1CCN(c2nc3c(c(N4CCCC4c4ccc(C)c(C)c4)n2)CN(C(C)C)C3=O)CC1 (stereo not drawn) [Example 298, 2-(4-acetylpiperazin-1-yl)-4-[2-(3,4-dimethylphenyl)pyrrolidin-1-yl]-6-(1-methylethyl)-5,6-dihydro-7H-pyrrolo[3,4-d]pyrimidin-7-one] | 454 | 

Results, then the molecule that gave them:

Row | IC50 [1] [nM] | IC50 [2] [nM] | SMILES
15 | 50.4 | 38 | CCOc1ccc([C@@H](C)Nc2nc(N3CCN(C(C)=O)CC3)nc3c2CN(C(C)C)C3=O)c(F)c1 [Example 204, (R)-2-(4-acetylpiperazin-1-yl)-4-(1-(4-ethoxy-2-fluorophenyl)ethylamino)-6-isopropyl-5H-pyrrolo[3,4-d]pyrimidin-7(6H)-one]
16 | 117 | 96 | CC(=O)N1CCN(c2nc(N[C@H](C)c3cccc(C(F)(F)F)c3F)c3c(n2)C(=O)N(C(C)C)C3)CC1 [Example 187, (R)-2-(4-acetylpiperazin-1-yl)-4-(1-(2-fluoro-3-(trifluoromethyl)phenyl)ethylamino)-6-isopropyl-5H-pyrrolo[3,4-d]pyrimidin-7(6H)-one]
17 | 65.8 | 62 | COc1cc(OC(C)C)ccc1[C@@H](C)Nc1nc(N2CCN(C(C)=O)CC2)nc2c1CN(C(C)C)C2=O [Example 203, (R)-2-(4-acetylpiperazin-1-yl)-4-(1-(4-isopropoxy-2-methoxyphenyl)ethylamino)-6-isopropyl-5H-pyrrolo[3,4-d]pyrimidin-7(6H)-one]
18 | 47.2 | 44 | CC(=O)N1CCN(c2nc(N[C@H](C)c3ccc(OC(C)C)c(F)c3)c3c(n2)C(=O)N(C(C)C)C3)CC1 [Example 190, (R)-2-(4-acetylpiperazin-1-yl)-4-(1-(3-fluoro-4-isopropoxyphenyl)ethylamino)-6-isopropyl-5H-pyrrolo[3,4-d]pyrimidin-7(6H)-one]
19 | 175 | 320 | CC(=O)N1CCN(c2nc(N[C@H](C)c3cccc(OC(F)F)c3)c3c(n2)C(=O)N(C(C)C)C3)CC1 [Example 181, (R)-2-(4-acetylpiperazin-1-yl)-4-(1-(3-(difluoromethoxy)phenyl)ethylamino)-6-isopropyl-5H-pyrrolo[3,4-d]pyrimidin-7(6H)-one]
20 | 84.5 | 85 | CCOc1ccc([C@@H](C)N(C)c2nc(N3CCN(C(C)=O)CC3)nc3c2CN(C(C)C)C3=O)cc1F [Example 262, (R)-2-(4-acetylpiperazin-1-yl)-4-((1-(4-ethoxy-3-fluorophenyl)ethyl)(methyl)amino)-6-isopropyl-5H-pyrrolo[3,4-d]pyrimidin-7(6H)-one]
21 | 199 | 170 | CC(=O)N1CCN(c2nc(N[C@H](C)c3cc(C(F)(F)F)ccc3F)c3c(n2)C(=O)N(C(C)C)C3)CC1 [Example 183, (R)-2-(4-acetylpiperazin-1-yl)-4-(1-(2-fluoro-5-(trifluoromethyl)phenyl)ethylamino)-6-isopropyl-5H-pyrrolo[3,4-d]pyrimidin-7(6H)-one]
22 | 85 | 94 | CC(=O)N1CCN(c2nc3c(c(N(C)Cc4cc5ccccc5c(C)n4)n2)CN(C(C)C)C3=O)CC1 [Example 263, 2-(4-acetylpiperazin-1-yl)-6-isopropyl-4-(methyl((1-methylisoquinolin-3-yl)methyl)amino)-5H-pyrrolo[3,4-d]pyrimidin-7(6H)-one]
23 | 174 | 140 | CC(=O)N1CCN(c2nc(N[C@H](C)c3ccc(F)c(C(F)(F)F)c3)c3c(n2)C(=O)N(C(C)C)C3)CC1 [Example 188, (R)-2-(4-acetylpiperazin-1-yl)-4-(1-(4-fluoro-3-(trifluoromethyl)phenyl)ethylamino)-6-isopropyl-5H-pyrrolo[3,4-d]pyrimidin-7(6H)-one]
24 | 29.9 |  | CC(=O)N1CCN(c2nc3c(c(N(C)Cc4cc5ccc(F)cc5cn4)n2)CN(C(C)C)C3=O)CC1 [Example 350, 2-(4-acetylpiperazin-1-yl)-4-(((7-fluoroisoquinolin-3-yl)methyl)(methyl)amino)-6-isopropyl-5H-pyrrolo[3,4-d]pyrimidin-7(6H)-one]
25 | 192 |  | CCOc1ccc([C@H]2CCCN2c2nc(N3CCN(C(C)=O)CC3)nc3c2CN(C(C)C)C3=O)cc1F [Example 300, 2-(4-acetylpiperazin-1-yl)-4-[(2R)-2-(4-ethoxy-3-fluorophenyl)pyrrolidin-1-yl]-6-(1-methylethyl)-5,6-dihydro-7H-pyrrolo[3,4-d]pyrimidin-7-one]
